{
  "source": "patent US5189169A",
  "about": "(priority 1991, dated 1993)",
  "settings_in_all_cases": "in vivo",
  "key": {"yellow nutsedge [1]": {"tested_on": "yellow nutsedge", "set-up": "species or system Cyperus esculentus"}, "[2]": {"tested_on": "three broadleaf weeds (morning glory, mustard, velvetleaf)", "set-up": "species or system Ipomoea purpurea, Brassica kaber, Abutilon theophrasti"}, "yellow nutsedge [3]": {"tested_on": "yellow nutsedge", "set-up": "species or system Cyperus esculentus", "remark": "listed apart in the source"}, "[4]": {"tested_on": "three broadleaf weeds (morning glory, mustard, velvetleaf)", "set-up": "species or system Ipomoea purpurea, Brassica kaber, Abutilon theophrasti", "remark": "listed apart in the source"}, "[5]": {"tested_on": "three grassy weeds (wild oat, watergrass, foxtail)", "set-up": "species or system Avena fatua, Echinochloa crusgalli, Setaria viridis"}, "[6]": {"tested_on": "three grassy weeds (wild oat, watergrass, foxtail)", "set-up": "species or system Avena fatua, Echinochloa crusgalli, Setaria viridis", "remark": "listed apart in the source"}},
  "note": "Where “and” joins values, the source holds several entries; their conditions need not be identical. Equal values may be shown once.",
  "data": [
    {"smiles": "CCCSP(=O)(N(CCC)CCC)N(C)c1ccc(Br)cc1C", "note": "(stereo not drawn) [Compound 39]", "values": [
      {"measurement": "% Control, Pre-emergence, NS", "setting": "yellow nutsedge [1]", "result": 0, "unit": "%"},
      {"measurement": "% Control, Post-emergence, BL avg.", "setting": "[2]", "result": 93, "unit": "%"},
      {"measurement": "% Control, Post-emergence, NS", "setting": "yellow nutsedge [3]", "result": 80, "unit": "%"},
      {"measurement": "% Control, Pre-emergence, BL avg.", "setting": "[4]", "result": 0, "unit": "%"},
      {"measurement": "% Control, Post-emergence, GR avg.", "setting": "[5]", "result": 67, "unit": "%"},
      {"measurement": "% Control, Pre-emergence, GR avg.", "setting": "[6]", "result": 0, "unit": "%"}
    ]},
    {"smiles": "CCCSP(=O)(N(CC)CCC(C)C)N(CC)CCC(C)C", "note": "[Compound 51]", "values": [
      {"measurement": "% Control, Pre-emergence, NS", "setting": "yellow nutsedge [1]", "result": 0, "unit": "%"},
      {"measurement": "% Control, Post-emergence, BL avg.", "setting": "[2]", "result": "95% and 100%"},
      {"measurement": "% Control, Post-emergence, NS", "setting": "yellow nutsedge [3]", "result": 0, "unit": "%"},
      {"measurement": "% Control, Pre-emergence, BL avg.", "setting": "[4]", "result": 8, "unit": "%"},
      {"measurement": "% Control, Post-emergence, GR avg.", "setting": "[5]", "result": "70% and 45%"},
      {"measurement": "% Control, Pre-emergence, GR avg.", "setting": "[6]", "result": 0, "unit": "%"}
    ]}
  ]
}
